These are literature values, as cited in patent US7737177B2, “Processes for preparing crystalline and amorphous mupirocin calcium” (priority 2001, dated 2010).

The conditions of data set [1]: both for humans and animals; cited from earlier work.
The test system of data set [2] is Gram positive bacteria (e.g. Staphylococcus aureus, Streptococcus pyogenes, Streptococcus pneumoniae, Klebsiella pneumoniae) and some Gram negative bacteria (e.). The conditions noted are these: mainly Gram positive and some Gram negative bacteria; cited from earlier work.
For data set [3] the following is noted: expressed as a percentage of pure free pseudomonic acid, cited from earlier work.

Like-named read-outs stand apart in the source and are kept apart here.

For the molecule `C/C(=C\C(=O)OCCCCCCCCC(=O)O)C[C@@H]1OC[C@H](C[C@@H]2O[C@H]2[C@@H](C)[C@H](C)O)[C@@H](O)[C@H]1O` [Pseudomonic acid A, 9-{4[5S(2S,3S-epoxy-5S-hydroxy-4S-methylhexyl)-3R,4R-dihydroxy-tetrahydropyran-2S-yl]-3-methylbut-2(E)-enoyloxy}nonanoic acid], in data set [1], the toxicity entry is recorded as “very low toxicity”. Further, the minimal inhibiting concentration in data set [2] was 0.02 to 0.5 mg/L. In addition, the Purity after storage in data set [3] (2 weeks, 37° C.) is 90.61%; in data set [3] (2 weeks, 50° C.), 51.18%; in data set [3] (2 weeks, 80° C.), 0%; in data set [3] (8 days, 80° C.), 0%; in data set [3] (10 days, 50° C.), 71.59%.
